# Measurements as given in US20240199618A1, “NOVEL N-ACYL-[3-SUBSTITUTED]-[8-SUBSTITUTED]-5,6-DIHYDRO-[1,2,4]TRIAZOLO[4,3-a]PYRAZINES AS SELECTIVE NK-3 RECEPTOR ANTAGONISTS, PHARMACEUTICAL COMPOSITION, METHODS FOR USE IN NK-3 RECEPTOR-MEDIATED DISORDERS” (Ogeda SA, priority 2013, published 2024).
# System: hot flashes in postmenopausal women
# Test: Phase 2a clinical trial, menopausal hot flashes
# Type: in vivo, human
# Protocol: Clinical Evaluation of compound n^o 5 for the Treatment of Menopausal Hot Flashes Objectives: The study objective is to evaluate the effect of compound n^o 5 on the severity and frequency of hot flashes in postmenopausal women. Design and Setting: The Phase 2a clinical trial was conducted in 80 patients, divided over 2 treatment groups of 40 patients each. […] The Phase 2a trial was double blind and randomized. This Phase 2a trial was conducted on healthy menopausal women (40-65 y) experiencing at least 49 moderate or severe hot flashes or night sweats over a period of 7 consecutive days in the screening period (maximum of 4 weeks). The study was conducted on an ambulatory basis where patients were asked to visit the clinical site on the first day of dosing and at weeks 4, 8, 12 during the treatment period with a follow-up visit 2-3 weeks after conclusion of dosing. Hot flashes were to be reported daily in the morning and the evening using an electronic diary tool. These reported events were used to calculate the Hot Flash Frequency and the Hot Flash Score. The weekly number of hot flashes was calculated in two ways: cumulatively for all severity grades, and cumulatively but leaving out the number of mild hot flashes. Hot Flash Frequencies were calculated for weeks 4 and 12. The Hot Flash Score (HFS) is a composite score combining both frequency and severity. This score is an accepted method to assess the overall severity of the hot flash burden and is calculated weekly. The score is a general measure of the number and severity of all hot flashes occurred during a given time period. The Hot Flash Score (based on severity and frequency) is calculated as follows: • day-score=(number of mild hot flashes/day×1)+(number of moderate hot flashes/day×2)+(number of severe hot flashes/day×3) • The weekly hot flash score is calculated: […] Higher scores indicate worse symptoms.
# [1] = 90 mg BID, postmenopausal women
# [2] = Baseline, 90 mg BID group, moderate and severe hot flashes
compound,measurement,setting,value
"Cc1nsc(-c2nnc3n2CCN(C(=O)c2ccc(F)cc2)[C@@H]3C)n1 [Compound 5, (R)-(4-fluorophenyl)(8-methyl-3-(3-methyl-1,2,4-thiadiazol-5-yl)-5,6-dihydro-[1,2,4]triazolo[4,3-a]pyrazin-7(8H)-yl)methanone]",Frequency of hot flashes in comparison of placebo,[1],significantly reduced
same,Score of hot flashes in comparison of placebo,[1],significantly reduced
same,Hot Flash Score (mean),[2],29.08
same,Hot Flashes Frequency (mean),[2],11.84
same,Hot Flash Score (mean),"Week 4, 90 mg BID oral",2.96
same,Hot Flashes Frequency (mean),"Week 4, 90 mg BID oral",1.35
same,Hot Flash Score (mean),"Week 12, 90 mg BID oral",1.70
same,Hot Flashes Frequency (mean),"Week 12, 90 mg BID oral",0.79
